Test results as given in patent publication US20090088411A1, “No-donating corticosteroid with improved pharmacokinetic, anti-inflammatory and vasodilatory properties” (Topigen Pharmaceuticals Inc., priority 2007, published 2009).
Where two headings read alike, the source gives them in different places. Marks after values point to notes of the source that are not given here.

How the values were obtained:
[1] = Peak flow measurements (PEF, miniwright meter); assay type: in vivo, humans; conditions: mean (SD)
Protocol: (§1) Although this study was only powered for neutrophils, the following parameters were also evaluated: sputum total cell and differential cell counts, using known methods, on days 0, 15 and day 22; pre-dose FEV1 measurements on days 0, 1, 14, 15 and 22; peak flow measurements throughout the study (miniwright meter); use of daily rescue medication (salbutamol) throughout the study; the response to methacholine challenge test; and the eNO levels (chemiluminescence after reaction with ozone) on days 0, 15 and 22 and plasma CRP levels on days 0, 15 and 22.
(§2) Those subjects who completed the 14-day run-in period were assigned to receive either an inhaled version of a compound of the present invention (in this case, budesonide 21-(4′-nitrooxymethyl)benzoate, designated hereafter as “TPI-1020”) or budesonide over a 21-day period. The doses administered were based on equimolar amounts of budesonide and were as follows: budesonide 400 μg bid for 14 days then 800 μg bid for 7 days; TPI-1020: 600 μg bid for 14 days then 1200 μg bid for 7 days. Study treatments were delivered in lactose-based blends using the capsule-based Aeroliser dry powder inhaler. Budesonide capsules (Miflonide®, Novartis Pharmaceuticals) delivered 383 μg as compared to 423 μg of budesonide for TPI-1020 (equivalent to 9.5% more budesonide delivered to the body in the TPI-1020 group). However, the fine particle dose of budesonide was 104 μg for the budesonide capsules and only 78 μg for the TPI-1020 capsules (equivalent to 25% less budesonide delivered to the lung in the TPI-1020 group). No other asthma medication except rescue salbutamol was permitted during the study.

[2] = system: HPA (hypothalamic-pituitary-adrenal) axis; conditions: in vivo
Source text: (§4) This undesirable HPA axis suppression is typically measured by a reduction in urinary cortisol excretion.
(§5) Safety parameters consisted of adverse events and serious adverse events, vital signs, asthma symptoms, laboratory determinations of CBC, urinalysis, regular blood biochemistry, plasma C-reactive protein (CRP), plasma and urinary free cortisol levels, spirometry and electrocardiograms (ECGs).

[3] = Plasma pharmacokinetic profile after inhalation; assay type: in vivo, humans
Protocol: as §2
TPI-1020 was not detected in the plasma of treated subjects at all the time points that were assessed over an 8 hour period on days 1 and 14 and on day 22, approximately 12 hours after the last dose. The budesonide plasma phamacokinetic analysis was different in the TPI-1020 group when compared to the budesonide group (FIG. 6). The Cmax, Tmax, and AUC were, respectively in the TPI-1020 vs. the budesonide treated group. For the data presented in FIG. 6, plasma budesonide was measured over an 8 hour period in budesonide (400 mcg, n=10) and TPI-1020 (600 mcg, n=8) treated patients after the first dose (day 1, dotted line) and day 14 (solid line).

FEV1 spirometry = assay type: in vivo, humans; conditions: for FEV1 (ITT, L) / FEV1 (PD, L): mean (SD)
Protocol: as §1, §2

sputum neutrophils = test: Sputum differential cell count: neutrophils; assay type: in vivo, humans; conditions: for mean sputum neutrophils / decrease in mean sputum neutrophils: post hoc; for median sputum neutrophils: all patients; for decrease in mean sputum neutrophils: over 22 days
Source text: (§3) A clinical study was undertaken in humans to test certain aspects of a preferred NO-donating budesonide derivative, TPI-1020, as compared to the corticosteroid, budesonide which was not modified with a NO-donating moiety. Specifically, the objectives of this study were to determine the safety, pharmacodynamic and pharmacokinetic activity of multiple doses of inhaled NO-donating budesonide derivatives compared to that of equimolar doses of inhaled budesonide in subjects with mild asthma who smoke. We chose patients with asthma who smoke since these patients had reported to have not only an increase in eNO but also an increase in neutrophils within their sputum (as described in COPD). While assessing the safety of these compounds in such patients we could thus explore the effects of the same in patients with increased sputum neutrophils.
as §1, §2
The sample size was chosen to provide information about the primary study objective (safety) and with the power to detect a 20% difference in the decrease in sputum neutrophils with TPI-1020, versus that occurring with budesonide. There are no published studies in mild smokers with asthma that have described the variability in sputum neutrophils. However, based on the COPD publication by Gamble et al., almost all patients with COPD have increased sputum neutrophils (>20%). We calculated that if 13 subjects per group completed the study, a difference of 20% in neutrophils (%) between groups could be detected with a power of 80%.

[4] = Asthma control scoring system questionnaire (ACSS); assay type: in vivo, humans; conditions: mean (SD)
Protocol: as §2

[5] = set-up: species or system humans; conditions: human, in vivo
Source text: as §3, §2
The total number of adverse events reported by patients receiving budesonide and TPI-1020 is graphically depicted in FIG. 1. More specifically, FIG. 1 depicts the total number of either treatment-related or physician-determined adverse events for each drug during the 21 day therapeutic period.

[6] = system: HPA (hypothalamic-pituitary-adrenal) axis; conditions: in vivo; remark: listed apart in the source
Source text: as §4, §5

[7] = system: exhaled nitric oxide (eNO); test: Exhaled NO levels (chemiluminescence); assay type: in vivo, humans; conditions: for eNO (ppb): mean (SD); for decrease in eNO: equimolar doses, baseline to day 22
Protocol: as §1, §2

[8] = Use of daily rescue medication (salbutamol); assay type: in vivo, humans; conditions: mean (SD)
Protocol: as §1, §2

neutrophils = test: Guinea pig model of LPS induced lung inflammation; assay type: in vivo
[9] = Supine and standing blood pressure (vital signs), clinical study; assay type: in vivo, humans; conditions: for change in standing pulse pressure: after 22 days, p=0.015 between groups
Protocol: as §2

sputum eosinophils = test: Sputum differential cell count: eosinophils; assay type: in vivo, humans; conditions: mean (SD)
Protocol: as §1, §2

blood lymphocytes = test: Blood lymphocytes; assay type: in vivo, humans; conditions: mean (SD)
Protocol: as §2

blood eosinophils = test: Blood eosinophils; assay type: in vivo, humans; conditions: mean (SD)
Protocol: as §2

[10] = Methacholine challenge test (PC20); assay type: in vivo, humans; conditions: mean (SD)
Protocol: as §1, §2

C-reactive protein (CRP) = test: Plasma CRP levels; assay type: in vivo, humans; conditions: for patients in whom CRP decreased: 22 days of therapy compared to baseline; for CRP (mg/L): mean (SD)
Protocol: as §1, §2

[11] = system: HPA (hypothalamic-pituitary-adrenal) axis; test: Morning plasma cortisol level
Source text: as §4, §5

[12] = system: HPA (hypothalamic-pituitary-adrenal) axis; test: 24-hour urinary free cortisol; conditions: vs baseline
Source text: as §4, §5

[13] = after 22 days, patients with baseline sputum neutrophils <20% (normal)
[14] = after 22 days, patients with baseline sputum neutrophils >20%
[15] = baseline, patients with baseline sputum neutrophils <20% (normal)
[16] = baseline, patients with baseline sputum neutrophils >20%
[17] = patients with baseline sputum neutrophils >20%
[18] = day 15 versus baseline, p=0.03 between groups

## CCCC1O[C@@H]2C[C@H]3[C@@H]4CCC5=CC(=O)C=C[C@]5(C)[C@H]4[C@@H](O)C[C@]3(C)[C@]2(C(=O)COC(=O)c2ccc(CO[N+](=O)[O-])cc2)O1 (stereo partly shown) [TPI-1020, budesonide 21-(4′-nitrooxymethyl)benzoate]
[1]; Baseline
  PEF (AM, L/min): 365.1 (93) L/min
[1]; Day 22
  PEF (AM, L/min): 375.3 (97) L/min
[2]
  effect on 24-hour urinary free cortisol: statistically insignificant effects
[3]; all time points over 8 hours on days 1 and 14, and day 22 about 12 hours after last dose
  TPI-1020 in plasma: not detected
[3]; inhaled, equimolar doses
  AUC of plasma budesonide relative to equimolar budesonide group: significantly lower AUC values
  Cmax of plasma budesonide relative to equimolar budesonide group: more than five fold lower
[3]; inhaled, equimolar doses, listed as NO-donating budesonide derivative
  AUC of plasma budesonide relative to equimolar budesonide group: more than five fold lower
FEV1 spirometry; Baseline
  FEV1 (ITT, L): 3.0 (0.5) L
  FEV1 (PD, L): 3.0 (0.6) L
FEV1 spirometry; Day 1
  FEV1 (PD, L): 2.8 (0.6) L
FEV1 spirometry; Day 14
  FEV1 (PD, L): 3.0 (0.6) L
FEV1 spirometry; Day 15
  FEV1 (PD, L): 2.8 (0.7) L
FEV1 spirometry; Day 22
  FEV1 (ITT, L): 3.0 (0.5) L
  FEV1 (PD, L): 3.0 (0.6) L
FEV1 spirometry; days 1 and 14, TPI-1020 600 mcg vs budesonide 400 mcg
  acute effects on FEV1 over an 8 hour period: no acute effects on FEV1 when compared to budesonide
Sputum neutrophils; [13]
  mean sputum neutrophils: 17.9%
Sputum neutrophils; [14]
  mean sputum neutrophils: 33.4%
Sputum neutrophils; [15]
  mean sputum neutrophils: 11.5%
Sputum neutrophils; [16]
  mean sputum neutrophils: 50.8%
Sputum neutrophils; day 0 prior to therapy
  median sputum neutrophils: 29.8%
Sputum neutrophils; day 0 to day 22, all patients
  decrease in median sputum neutrophils: 32.6%
Sputum neutrophils; day 22 (end of therapy)
  median sputum neutrophils: 20.1%
Sputum neutrophils; [17]
  decrease in mean sputum neutrophils: 35.8%
Sputum neutrophils; patients with high neutrophils at baseline
  patients in whom sputum neutrophils decreased to <30%: 57.1%
[4]; Baseline
  ACSS: 65 (11.1)
[4]; Day 22
  ACSS: 71.5 (16.3)
[5]
  drug-related adverse events: 6
  number of subjects that reported adverse events: 6
  total treatment-emergent adverse events: 13
[6]
  morning plasma cortisol level: 13.7 µg/dL
[7]; Baseline
  eNO (ppb): 29 (27) ppb
[7]; Day 22
  eNO (ppb): 16.9 (14) ppb
[7]
  decrease in eNO: 12.1 ppb
[8]; Baseline
  Doses of Rescue Rx: 14.7 (11)
  Rescue free days (%): 39 (39) %
[8]; Day 22
  Doses of Rescue Rx: 3.9 (4.5)
  Rescue free days (%): 63.5 (33) %
neutrophils
  recruitment of neutrophils into the lungs: inhibited the recruitment of neutrophils
[9]
  change in standing pulse pressure: −9.33 mmHg
[9]; day 22 versus baseline
  decrease in standing diastolic blood pressure: 4.0%
  decrease in standing systolic blood pressure: 9.9%
  decrease in supine diastolic blood pressure: 3.4%
  decrease in supine systolic blood pressure: 3.2%
[9]; over the 22 day period, vs baseline
  effect on blood pressure values: decreased blood pressure values
Sputum eosinophils; Baseline
  Sputum eos (%): 8.7 (10.8) %
Sputum eosinophils; Day 22
  Sputum eos (%): 3.3 (4.0) %
Blood lymphocytes; Baseline
  Blood lymphocytes (%): 20.3 (16.6) %
Blood lymphocytes; Day 22
  Blood lymphocytes (%): 18.4 (15.4)* %
Blood eosinophils; Baseline
  Blood eos (%): 2.8 (2.7) %
Blood eosinophils; Day 22
  Blood eos (%): 1.8 (1.7) %
[10]; Baseline
  PC20 (mg/ml): 3.5 (5.7) mg/ml
[10]; Day 22
  PC20 (mg/ml): 4.0 (8.9) mg/ml
C-reactive protein (CRP)
  patients in whom CRP decreased: 69.2%
C-reactive protein (CRP); Baseline
  CRP (mg/L): 3.6 (3.9) mg/L
C-reactive protein (CRP); Day 22
  CRP (mg/L): 3.0 (4.5) mg/L
C-reactive protein (CRP); [18]
  decrease in plasma CRP: 1.4 mg/L

## CCCC1O[C@@H]2C[C@H]3[C@@H]4CCC5=CC(=O)C=C[C@]5(C)[C@H]4[C@@H](O)C[C@]3(C)[C@]2(C(=O)CO)O1 (stereo partly shown) [budesonide, reference compound]
[1]; Baseline
  PEF (AM, L/min): 405.5 (91) L/min
[1]; Day 22
  PEF (AM, L/min): 423.4 (89.5) L/min
FEV1 spirometry; Baseline
  FEV1 (ITT, L): 3.3 (0.8) L
  FEV1 (PD, L): 3.2 (0.7) L
FEV1 spirometry; Day 1
  FEV1 (PD, L): 3.1 (0.6) L
FEV1 spirometry; Day 14
  FEV1 (PD, L): 3.3 (0.7) L
FEV1 spirometry; Day 15
  FEV1 (PD, L): 3.3 (0.7) L
FEV1 spirometry; Day 22
  FEV1 (ITT, L): 3.3 (0.8) L
  FEV1 (PD, L): 3.3 (0.7) L
Sputum neutrophils; [13]
  mean sputum neutrophils: 3.95%
Sputum neutrophils; [14]
  mean sputum neutrophils: 51.9%
Sputum neutrophils; [15]
  mean sputum neutrophils: 4.25%
Sputum neutrophils; [16]
  mean sputum neutrophils: 55.1%
Sputum neutrophils; day 0 prior to therapy
  median sputum neutrophils: 39.6%
Sputum neutrophils; day 0 to day 22, all patients
  increase in median sputum neutrophils: 3.7%
Sputum neutrophils; day 22 (end of therapy)
  median sputum neutrophils: 41.1%
Sputum neutrophils; [17]
  decrease in mean sputum neutrophils: 5.8%
[4]; Baseline
  ACSS: 73.1 (14)
[4]; Day 22
  ACSS: 82.4 (8.4)
[5]
  severe adverse events: one
[5]; 21 days
  drug-related adverse events: 9
  number of subjects that reported adverse events: 7
  total treatment-emergent adverse events: 39
[11]; baseline
  morning plasma cortisol level: 13.1 µg/dL
[11]; day 15
  morning plasma cortisol level: 10.9 µg/dL
[11]; day 22
  morning plasma cortisol level: 11.4 µg/dL
[7]; Baseline
  eNO (ppb): 19 (17.6) ppb
[7]; Day 22
  eNO (ppb): 9.8 (7.6) ppb
[7]
  decrease in eNO: 9.2 ppb
[8]; Baseline
  Doses of Rescue Rx: 17 (15)
  Rescue free days (%): 40.9 (41) %
[8]; Day 22
  Doses of Rescue Rx: 3.5 (4)
  Rescue free days (%): 68.4 (32) %
[9]
  change in standing pulse pressure: +4.85 mmHg
Sputum eosinophils; Baseline
  Sputum eos (%): 2.4 (3.3) %
Sputum eosinophils; Day 22
  Sputum eos (%): 1.0 (1.0) %
Blood lymphocytes; Baseline
  Blood lymphocytes (%): 14.9 (13) %
Blood lymphocytes; Day 22
  Blood lymphocytes (%): 22.5 (15.8) %
Blood eosinophils; Baseline
  Blood eos (%): 2.3 (2.3) %
Blood eosinophils; Day 22
  Blood eos (%): 2.1 (1.6) %
[10]; Baseline
  PC20 (mg/ml): 1.4 (1.3) mg/ml
[10]; Day 22
  PC20 (mg/ml): 2.0 (1.6) mg/ml
C-reactive protein (CRP)
  patients in whom CRP decreased: 33.2%
C-reactive protein (CRP); Baseline
  CRP (mg/L): 2.7 (4.3) mg/L
C-reactive protein (CRP); Day 22
  CRP (mg/L): 2.5 (1.4) mg/L
C-reactive protein (CRP); [18]
  increase in plasma CRP: 0.7 mg/L
[12]
  effect on 24-hour urinary free cortisol: significantly decreased
